Test results: US20090317372A1, “SMALL MOLECULES FOR THE REDUCTION OF HIGH BLOOD GLUCOSE LEVEL” (priority 2008, published 2009)

Assays:
mice with PC-3 tumor = assay: Glucose tolerance test in the PC-3 tumor model, chronic and acute CCcompound1; assay type: in vivo
Experimental: (§1) The experimental PC-3 human tumors were developed in a homozygous line of C.B.-171 cr scid/scid adult female mice that were kept at specified pathogen free (SPF) hygienic level. Treatments with CCcompound1 (4.5 mg/kg) were started on day 12 after tumor implantation and conducted for 5+5 days with 2 treatment-free days inserted between the 2 series of treatments. A control group (10 mice) received no treatment, while another group (10 mice) received 4.5-mg/kg of CCcompound1 once every day between days 12-24. The results, shown in TABLE 8, indicate that between days 12 and 24 after tumor implantation, the prostate tumor caused about 6.9-g loss in lean body weight (4.1-g loss in total body weight). In contrast, animals treated with CCcompound1 actually gained 6.3-g lean body weight.
Tumors and cachexia are usually associated with insulin resistance. […] Both groups were starved for 14 hours and divided into two sub-groups; one subgroup remained untreated on day 25, another subgroup was administered 4.5-mg/kg of CCcompound1 60 min prior to administration of 3-g/kg of glucose. Blood samples were taken and blood glucose was analyzed as described earlier. […] In contrast, in animals that received chronic (C) treatment with CCcompound1 for 12 days, reduction in blood glucose level was clearly faster. Importantly, acute (A) treatment with CCcompound1 was almost as effective in cancer mice as in normal mice in reducing blood glucose level

C57/BL/6 mice [1] = assay: Glucose tolerance test with normal mice (CC1, CC3, CC19); assay type: in vivo
Experimental: C57/BL/6 female mice weighing 22-23-g and fasted for 14 hours before intraperitoneal (i.p.) administration of glucose (3-g/kg) were used. None of the animals received any food during the experiment other than glucose. The animals received i.p. injections of 4.5-mg/kg of CCcompound1, CCcompound3, or CCcompound19 either 1 hour or 24 hours prior to glucose administration as indicated in TABLE 3. Blood samples were taken from the eyes (canthus), and glucose concentrations in whole blood samples were immediately measured with the Fast Glucose C test. Each group included six animals. The data, shown in TABLE 3, are the mean±std. dev. of 6 determinations, i.e. one determination with each of the six animals. In this and all subsequent experiments the values at 0 min reflect glucose concentration in blood samples collected 1-5 minutes prior to the administration of glucose.

PC-3 human tumors = assay: PC-3 tumor/cachexia model: tumor weight and body weight; assay type: in vivo, mice
Experimental: as §1

C57/BL/6 mice [2] = assay: Glucose tolerance test with normal mice, CCcompound1 and sub-optimal insulin; assay type: in vivo; conditions: CCcompound1 4.5-mg/kg i.p. 60 min and/or insulin 0.02 IU 15 min prior to glucose
Experimental: In this experiment, a sub-optimal dose of insulin (0.02 international unit-IU) was used to probe if CCcompound1 indeed can enhance the effect of insulin on blood glucose. Again C57/BL/6 female mice weighing 22-23-g and fasted for 14 hours prior to i.p. glucose administration (3-g/kg), were used. None of the animals received any food during the experiment other than glucose. The animals received i.p. injections of 4.5-mg/kg of CCcompound1 and/or 0.02 Unit insulin 60 min and 15 min prior to glucose administration, respectively. Blood samples were taken and glucose concentrations measured as indicated earlier. Each group included six animals. The data are the mean±std. dev. of 6 determinations, i.e. one determination with each of the six animals.

ob/ob mice = assay: Blood glucose in ob/ob mice, CCcompound1 combined with human proteins AGP and TF; assay type: in vivo
Experimental: For each experimental group, ob/ob mice were chosen (5 mice in each group) that were 43 days old and weighed on average 40.3±1.9-g on the first day of experiment. Three groups of mice were treated with s.c. injection of 4.5-mg/kg CCcompound1 once every day for 17 days. Mice in one of these CCcompound1-treated groups received no other treatment, and their blood was drawn for glucose analysis on day 14 and 17 exactly 45 min after treatment. The second CCcompound1-treated group also received 0.5-mg/mouse (˜11 mg/kg) dose of greater than 98% pure commercial human transferrin [catalogue number, T 3309 according to 2004/2005 Sigma catalogue]. In this second group the blood was drawn on day 14 just prior to TF administration and on day 17 two hours after TF and 45 min after CCcompound1 administration. An additional group of animals received only TF treatment. The third CCcompound1-treated group also received 1.2-mg/mouse (26.6-mg/kg) dose of >99% pure human AGP [catalogue number G 9885 according to 2004/2005 Sigma catalogue]; in this group the blood was drawn on day 14 just prior to AGP administration and on day 17 two hours and 45 minutes after administration of AGP and CCcompound1, respectively. An additional group of animals received only AGP treatment, and yet another group of animals received no treatment at all. On day 1, prior to any treatment, the blood glucose level of all animals was in the range of 7.2-7.9 mM.

[3] = 4.5 mg/kg group, day 12 (start of treatment)
[4] = 4.5 mg/kg once daily days 12-24, day 24

SMILES: Cc1c(OCC(O)C[N+](C)(C)C)cc2c(=O)c3ccccc3sc2c1C.[Cl-] (centres unmarked) [CCcompound 1, [3-(3,4-Dimethyl-9-oxo-9H-thioxanthen-2-yloxy)-2-hydroxypropyl]trimethyl-ammonium chloride]
- Blood glucose (mice with PC-3 tumor; acute (A): 4.5-mg/kg 60 min prior to glucose on day 25, 0 min): 2.3 ± 0.2 mM
- Blood glucose (mice with PC-3 tumor; acute (A), 30 min): 5.5 ± 0.6 mM
- Blood glucose (mice with PC-3 tumor; acute (A), 60 min): 4.4 ± 0.7 mM
- Blood glucose (mice with PC-3 tumor; acute (A), 120 min): 3.5 ± 0.4 mM
- Blood glucose (mice with PC-3 tumor; chronic (C): 4.5-mg/kg daily days 12-24, 0 min): 1.8 ± 0.4 mM
- Blood glucose (mice with PC-3 tumor; chronic (C), 30 min): 7.1 ± 0.5 mM
- Blood glucose (mice with PC-3 tumor; chronic (C), 60 min): 6.5 ± 0.4 mM
- Blood glucose (mice with PC-3 tumor; chronic (C), 120 min): 4.9 ± 0.6 mM
- Blood glucose (mice with PC-3 tumor; chronic + acute (C + A), 0 min): 2.1 ± 0.5 mM
- Blood glucose (mice with PC-3 tumor; chronic + acute (C + A), 30 min): 5.1 ± 0.4 mM
- Blood glucose (mice with PC-3 tumor; chronic + acute (C + A), 60 min): 3.9 ± 0.4 mM
- Blood glucose (mice with PC-3 tumor; chronic + acute (C + A), 120 min): 3.1 ± 0.3 mM
- Blood glucose (C57/BL/6 mice [1]; 4.5-mg/kg i.p. 1 h prior to glucose 3-g/kg i.p., 0 min): 1.3 ± 0.3 mM
- Reduction of blood glucose level (C57/BL/6 mice [1]; 4.5-mg/kg i.p. 1 h prior to glucose, 30th min of test period): 33%
- Blood glucose (C57/BL/6 mice [1]; 4.5-mg/kg i.p. 1 h prior to glucose, 30 min): 5.4 ± 0.5 mM
- Blood glucose (C57/BL/6 mice [1]; 4.5-mg/kg i.p. 1 h prior to glucose, 60 min): 4.3 ± 0.4 mM
- Blood glucose (C57/BL/6 mice [1]; 4.5-mg/kg i.p. 1 h prior to glucose, 120 min): 2.8 ± 0.2 mM
- Blood glucose (C57/BL/6 mice [1]; 4.5-mg/kg i.p. 1 h prior to glucose, 180 min): 2.2 ± 0.2 mM
- Blood glucose (C57/BL/6 mice [1]; 4.5-mg/kg i.p. 24 h prior to glucose, 0 min): 1.4 ± 0.2 mM
- Blood glucose (C57/BL/6 mice [1]; 4.5-mg/kg i.p. 24 h prior to glucose, 30 min): 7.0 ± 0.7 mM
- Blood glucose (C57/BL/6 mice [1]; 4.5-mg/kg i.p. 24 h prior to glucose, 60 min): 5.2 ± 0.4 mM
- Blood glucose (C57/BL/6 mice [1]; 4.5-mg/kg i.p. 24 h prior to glucose, 120 min): 3.4 ± 0.3 mM
- Blood glucose (C57/BL/6 mice [1]; 4.5-mg/kg i.p. 24 h prior to glucose, 180 min): 2.8 ± 0.2 mM
- Glucose lowering effect (C57/BL/6 mice [1]; treatment 24 hours prior to glucose): smaller and not reproducible in additional experiments
- Body weight (lean) (PC-3 human tumors; [3]): 25.0 g
- Tumor weight (PC-3 human tumors; [3]): 0.2 ± 0.1 g
- Total weight (PC-3 human tumors; 4.5 mg/kg group, day 12 after tumor transplantation (start of treatment)): 25.2 ± 1.3 g
- Body weight (lean) (PC-3 human tumors; [4]): 30.3 g
- Total weight (PC-3 human tumors; [4]): 31.9 ± 2.5 g
- Tumor weight (PC-3 human tumors; [4]): 1.6 ± 0.4 g
- Gain in lean body weight (PC-3 human tumors; 4.5 mg/kg, between days 12 and 24): 6.3 g
- Reduction of tumor volume (PC-3 human tumors; 4.5 mg/kg, days 12-24): ~50%
- Blood glucose (C57/BL/6 mice [2]; 0 min): 1.8 ± 0.4 mM
- Blood glucose (C57/BL/6 mice [2]; 30 min): 5.1 ± 0.5 mM
- Blood glucose (C57/BL/6 mice [2]; 60 min): 4.1 ± 0.4 mM
- Blood glucose (C57/BL/6 mice [2]; 120 min): 3.3 ± 0.3 mM
- Blood glucose level (ob/ob mice; 14th day, CC1 4.5-mg/kg s.c. daily, 45 min after treatment, blood drawn just prior to AGP or TF administration): 10.9 ± 0.9 mM
- Blood glucose level (ob/ob mice; 17th day, 45 min after CC1 4.5-mg/kg s.c., two hours after TF 0.5-mg/mouse or AGP 1.2-mg/mouse): 11.4 ± 0.4 mM
